Test: gradient 5% acetonitrile 3 min, to 50% in 2 min, to 85% in 15 min, held 3 min, 100 µL/min
Settings: column: Zorbax Extend-C18 2.1 x 50 mm; eluents: water / acetonitrile, 0.1% formic acid
Outline: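 Retention time was recorded from adduct peaks, which were picked computationally and each inspected manually. Pure standards ran in mixtures of ~100 molecules on HPLC coupled to a quadrupole time-of-flight mass spectrometer, in positive and negative ionization mode, through a Zorbax Extend-C18 column (2.1 × 50 mm, 1.8 μm) at 100 μL/min. Eluents were water and acetonitrile, each with 0.1% formic acid.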

Work on `O=C(NCc1ccc(F)cc1F)c1ccc(Cn2c(C(F)(F)F)nc3cccnc32)cc1` yielded an RP-LC retention time of 925 s.

`COc1ccccc1CNC(=O)C1CCN(c2cc(N3CCOCC3)ncn2)CC1` gave an RP-LC retention time of 619 s.

For `CCc1nc(-c2csc(S(=O)(=O)N3CCC(C(=O)NCc4ccccc4)CC3)c2)no1`, the RP-LC retention time was 702 s.

For `CC(C)n1cc(S(=O)(=O)Nc2cccc(F)c2)c2cccnc21`, the RP-LC retention time was 877 s.

Molecule `CS(=O)(=O)c1ccc2nc(Nc3nc4cc5c(cc4s3)OCO5)sc2c1` has an RP-LC retention time of 786 s.

Work on `O=C(NCc1ccccc1C(F)(F)F)c1cn2nc(Cl)ccc2n1` yielded an RP-LC retention time of 922 s.

For `COc1cccc(-c2nc3ccccc3n2CC(=O)N2CCC(C)CC2)c1`, the RP-LC retention time was 668 s.

Work on `CC(C)CCNC(=O)C1CCN(S(=O)(=O)c2ccc3c(c2)sc(=O)n3C)CC1` yielded an RP-LC retention time of 832 s.

Work on `CC1=C(c2ccc(F)cc2)S(=O)(=O)N=C1N1CCCN(C(=O)C2CC2)CC1` yielded an RP-LC retention time of 734 s.

`Cc1ccc(N2CC(c3noc(-c4ccco4)n3)CC2=O)cc1` (stereo not given) showed an RP-LC retention time of 877 s.

Work on `Clc1ccc(-c2ccc(CNCC3CCNCC3)o2)c(Cl)c1` yielded an RP-LC retention time of 611 s.

`C=CCNC(=O)NC1CCN(C2=NS(=O)(=O)C(c3ccc(C)cc3)=C2C)CC1` showed an RP-LC retention time of 736 s.

`CC(C)CCNC(=O)CN1C(=O)C2CCCCN2c2ccc(C(=O)N(C)C)cc21` (stereo not given) gave an RP-LC retention time of 745 s.

Work on `O=C(c1nccc2ccccc12)N1C[C@@H](CO)[C@H](c2ccccn2)C1` yielded an RP-LC retention time of 578 s.

`CCC1CCCCN1CCCNC(=O)C1CCN(c2ccc(N3CCCCC3)nn2)CC1` (stereo not given) showed an RP-LC retention time of 561 s.

In the case of `CCc1nc2cc(N3CCC(C(=O)NCC4CCCO4)CC3)cnc2nc1CC` (stereo not given), the RP-LC retention time is reported as 670 s.

In the case of `CCN1C(=O)Cc2cc(C(=O)NC3CCCCCC3)ccc21`, the RP-LC retention time is reported as 797 s.

In the case of `CN1c2ccc(F)cc2C(=O)NC12CCN(C(=O)c1ccc3c(c1)OCO3)CC2`, the RP-LC retention time is reported as 724 s.

`O=C(NCC(=O)N1CCN(c2ccccn2)CC1)c1cc2ccccc2[nH]1` gave an RP-LC retention time of 600 s.

Molecule `COCCN1C(=O)c2ccccc2C(C(=O)NCc2ccccc2)C1c1cccs1` (stereo not given) has an RP-LC retention time of 842 s.

For `COc1ccc(-c2nc3cnccn3c2Nc2cc(OC)ccc2OC)cc1`, the RP-LC retention time was 831 s.

Molecule `CCCN(CC1CCOC1)C(=O)Nc1cccc(Cl)c1F` (stereo not given) has an RP-LC retention time of 853 s.

With `COCc1noc([C@@H]2CN(C(=O)c3noc(C)c3COC)C[C@H]2C(N)=O)n1` the RP-LC retention time was 625 s.

`Cc1nc2cccnc2n1C1CCN(C(=O)Nc2ccc3c(c2)OCCO3)C1` (stereo not given) showed an RP-LC retention time of 573 s.

With `CC(C)CN1C(=O)c2ccccc2C(C(=O)NCCN2CCN(C)CC2)C1c1cccs1` (stereo not given) the RP-LC retention time was 617 s.

For `Cc1cnc(C2CCC2)n1CC1CCN(S(=O)(=O)c2ccccc2)CC1`, the RP-LC retention time was 686 s.

`Cc1cc(C)c(C#N)c(SCC(=O)N2CCOCC2)n1` gave an RP-LC retention time of 721 s.

`O=C(CCCSc1ccc(F)cc1)Nc1nnc(Cc2ccc3c(c2)OCO3)o1` gave an RP-LC retention time of 807 s.

Work on `CCn1nc(C)c(CCN(C)C(=O)Nc2cccc(C(=O)OC)c2)c1C` yielded an RP-LC retention time of 644 s.

With `CC(C)n1c(=O)c(NCc2ccc(N3CCCCC3)cc2)nc2ccncc21` the RP-LC retention time was 554 s.

For `O=C(Nc1ccc(F)cc1F)N1CCN(Cc2nc3cc(Cl)ccc3o2)CC1`, the RP-LC retention time was 763 s.

With `CCc1nnc(-c2cc(C)n(CC(=O)Nc3cc(C)ccc3C)c2C)o1` the RP-LC retention time was 789 s.

`O=C(c1nnc(-c2csc(S(=O)(=O)N3CCN(c4ncccn4)CC3)c2)o1)N1CCCCC1` showed an RP-LC retention time of 881 s.

`CCN(Cc1ccccc1)C(=O)c1ncn2c1C(=O)N(CC)C(C)(C(=O)NCc1ccc(F)cc1)C2` (stereo not given) gave an RP-LC retention time of 762 s.

Molecule `Cc1cc(OCC(=O)Nc2ccc(F)cc2)nc(N2CCN(c3ccccc3)CC2)n1` has an RP-LC retention time of 823 s.

In the case of `Cc1ccc(CNC(=O)C2(C)Cn3nc(C(=O)NC4CCCCC4)cc3C(=O)N2C)cc1` (stereo not given), the RP-LC retention time is reported as 800 s.

`Cc1c(C(=O)N2CCOCC2)cnn1-c1cc(-c2nc(C(C)C)no2)ccn1` showed an RP-LC retention time of 840 s.

In the case of `Cc1cc(C)nc(Nc2nc(CC(=O)NCCc3ccc(S(N)(=O)=O)cc3)cs2)n1`, the RP-LC retention time is reported as 604 s.

With `CCc1nc2cc(-c3noc(Cc4ccccc4F)n3)ccc2o1` the RP-LC retention time was 1050 s.

In the case of `O=C(N[C@@H](Cc1c[nH]c2ccccc12)C(=O)O)c1cc2ccccc2o1`, the RP-LC retention time is reported as 769 s.

Work on `CCNC(=O)C1CCN(C2=NS(=O)(=O)C(c3ccc(C(C)C)cc3)=C2C)CC1` yielded an RP-LC retention time of 812 s.

In the case of `COc1ccc(-c2cc(N3CCC(NC(=O)c4ccc(Br)cc4)C3)n[nH]2)cc1` (stereo not given), the RP-LC retention time is reported as 966 s.

In the case of `CCn1c(N2CCCC(C(=O)NCc3ccccc3F)C2)cc(=O)n(C)c1=O` (stereo not given), the RP-LC retention time is reported as 776 s.

Molecule `CCCn1cc(CCNC(=O)Nc2c(F)cccc2F)c2cccnc21` has an RP-LC retention time of 699 s.

In the case of `COc1ccccc1NC(=O)CC(=O)Nc1ccc2nc3n(c(=O)c2c1)CCCCC3`, the RP-LC retention time is reported as 742 s.

Molecule `COCCn1c(SCc2nc(-c3ccc4c(c3)OCO4)no2)nc2cc3c(cc2c1=O)OCO3` has an RP-LC retention time of 1060 s.

With `CN(C)S(=O)(=O)c1ccc(-c2nnc(C(=O)NCc3cccc(C(F)(F)F)c3)o2)cc1` the RP-LC retention time was 958 s.

For `Cc1cc(N2CCC(NC(=O)Nc3cc(F)cc(F)c3)C2=O)ccc1F` (stereo not given), the RP-LC retention time was 931 s.

`COc1cccc(C2CC(c3ccc(F)cc3)=NC3(CCN(C)CC3)N2)c1O` (stereo not given) gave an RP-LC retention time of 590 s.

`Cc1ccn2cc(-c3ccc(C)c(NS(=O)(=O)c4cc(C)c(C)cc4C)c3)nc2c1` gave an RP-LC retention time of 759 s.

With `Cc1noc(C)c1S(=O)(=O)N[C@@H]1CN(Cc2ccccc2)C[C@H]1CN(C)C` the RP-LC retention time was 570 s.

With `Cc1occc1-c1nnc2sc(COc3ccc(Cl)cc3)nn12` the RP-LC retention time was 1000 s.

For `Cc1nn(CC(=O)NCCN2CCOCC2)c(=O)c2nc(-c3ccccc3)sc12`, the RP-LC retention time was 610 s.

With `COc1ccc(Cl)cc1NS(=O)(=O)c1cc(-c2[nH]ncc2C(=O)N(C)C)oc1C` the RP-LC retention time was 716 s.

Molecule `O=S(=O)(c1ccc(Cl)cc1)N1CCc2nc(-c3ccc(Cl)cc3)ncc2C1` has an RP-LC retention time of 1270 s.

With `CCOc1ccc(CN2C(=O)C3(CCOCC3)CC2c2nnnn2C(C)(C)C)cc1` (stereo not given) the RP-LC retention time was 833 s.

`O=C(N1[C@H]2CC[C@@H]1c1cnc(-c3ccc(F)cc3)nc1C2)C1(c2ccccc2)CC1` gave an RP-LC retention time of 1070 s.

Molecule `COCC1CN(C)CC12CCN(Cc1cccc(OC)n1)CC2` (stereo not given) has an RP-LC retention time of 567 s.

Molecule `CCOc1ccc(-c2ccc(=O)n(CCc3nc(-c4cccc(OC)c4OC)no3)n2)cc1` has an RP-LC retention time of 952 s.

For `O=C(NCc1csc(-c2cccs2)n1)C1CCN(C(=O)c2cccc(F)c2)CC1`, the RP-LC retention time was 772 s.

For `O=S(=O)(c1ccc(Cl)c(-c2nnc(-c3ccccc3)o2)c1)N1CCCC1`, the RP-LC retention time was 1040 s.

In the case of `CC1CCN(C(=O)CSc2nnc(-c3ccc(F)cc3)o2)CC1`, the RP-LC retention time is reported as 958 s.

Molecule `Cc1ccc(C(O)Cn2ccn3nc(-c4ccc(F)cc4)cc3c2=O)cc1C` (stereo not given) has an RP-LC retention time of 1020 s.

Molecule `CCc1nn2c(CNC(=O)c3ccc(Cl)cc3)c(-c3ccccc3)nc2s1` has an RP-LC retention time of 974 s.

Molecule `Cc1cccc(-n2c(=O)c3c(cc(C)n3C)n(CC(=O)Nc3ccc(F)c(Cl)c3)c2=O)c1` has an RP-LC retention time of 940 s.
